Test results from US8481732B2 (Incyte Corporation, priority 2009, dated 2013).

Target: T1, histamine H4 receptor (Homo sapiens, UniProt Q9H3N8)
T1 construct: expressed in transfected cells; host or cells: HEK293SFM cells (membrane preparation)
Test: H4 Membrane Binding Assay (3H-Histamine displacement)
Conditions: membranes of recombinant HEK293SFM cells, 10 nM 3H-Histamine, 1.5 hr at room temperature
Outline: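 Membranes from HEK293SFM cells expressing human H4 (also human H1–H3, mouse H4), prepared in ice-cold 50 mM Tris-HCl pH 7.5. [3H]-histamine displacement, nonspecific binding defined with 1000× unlabeled ligand. Bound radioactivity separated on PEI-treated GF/B filters and measured by liquid scintillation counting.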

T1 sequence (Q9H3N8 whole entry): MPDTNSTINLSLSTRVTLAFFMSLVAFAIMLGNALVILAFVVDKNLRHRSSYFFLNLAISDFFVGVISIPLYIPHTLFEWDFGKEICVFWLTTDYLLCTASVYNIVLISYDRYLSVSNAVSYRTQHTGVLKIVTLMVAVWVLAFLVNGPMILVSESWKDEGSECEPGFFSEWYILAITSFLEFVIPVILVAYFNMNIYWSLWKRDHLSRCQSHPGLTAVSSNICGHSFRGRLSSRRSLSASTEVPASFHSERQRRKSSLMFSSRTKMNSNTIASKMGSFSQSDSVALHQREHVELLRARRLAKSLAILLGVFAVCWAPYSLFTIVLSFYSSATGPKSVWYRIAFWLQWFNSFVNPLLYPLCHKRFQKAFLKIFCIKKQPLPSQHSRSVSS

| SMILES | IC50 |
| --- | --- |
| CN1CCN(c2cc(-c3ccc4c(c3)CN(C(=O)CC(C#N)c3ccccc3)CC4)nc(N)n2)CC1 (stereo not shown) [Example 124, 4-[7-[2-Amino-6-(4-methylpiperazin-1-yl)pyrimidin-4-yl]-3,4-dihydroisoquinolin-2(1H)-yl]-4-oxo-2-phenylbutanenitrile] | 36 nM |
| CN1CCN(c2cc(-c3ccc4c(c3)CN(C(=O)Cc3cncc(C#N)c3)CC4)nc(N)n2)CC1 [Example 125, 5-{2-[7-[2-Amino-6-(4-methylpiperazin-1-yl)pyrimidin-4-yl]-3,4-dihydroisoquinolin-2(1H)-yl]-2-oxoethyl}nicotinonitrile] | 92 nM |
| CC(NC(=O)N1CCc2ccc(-c3cc(N4CCN(C)CC4)nc(N)n3)cc2C1)c1cccnc1 (stereo not shown) [Example 126, 7-[2-Amino-6-(4-methylpiperazin-1-yl)pyrimidin-4-yl]-N-(1-pyridin-3-ylethyl)-3,4-dihydroisoquinoline-2(1H)-carboxamide] | 569 nM |
| CC(NC(=O)N1CCc2ccc(-c3cc(N4CCN(C)CC4)nc(N)n3)cc2C1)c1ccn(C)n1 (stereo not shown) [Example 127, 7-[2-Amino-6-(4-methylpiperazin-1-yl)pyrimidin-4-yl]-N-[1-(1-methyl-1H-pyrazol-3-yl)ethyl]-3,4-dihydroisoquinoline-2(1H)-carboxamide] | 253 nM |
| CN1CCN(c2cc(-c3ccc4c(c3)CN(C(=O)Cc3ccc(N5CCCC5)nc3)CC4)nc(N)n2)CC1 [Example 128, 4-(4-Methylpiperazin-1-yl)-6-{2-[(6-pyrrolidin-1-ylpyridin-3-yl)acetyl]-1,2,3,4-tetrahydroisoquinolin-7-yl}pyrimidin-2-amine] | 45 nM |
| CN1CCN(c2nc(N)nc3cc(C(=O)NC(C#N)c4ccccc4)ccc23)CC1 (stereo not shown) [Example 129, 2-Amino-N-[cyano(phenyl)methyl]-4-(4-methylpiperazin-1-yl)quinazoline-7-carboxamide] | 156 nM |
| CCOC(=O)[C@H](CCc1ccccc1)NC(=O)c1ccc2c(N3CCN(C)CC3)nc(N)nc2c1 [Example 130, Ethyl (2S)-2-({[2-amino-4-(4-methylpiperazin-1-yl)quinazolin-7-yl]carbonyl}amino)-4-phenylbutanoate] | 71 nM |
| CN1CCN(c2nc(N)nc3cc(C(=O)NCc4ccc(Cl)c(Cl)c4)ccc23)CC1 [Example 131, 2-Amino-N-(3,4-dichlorobenzyl)-4-(4-methylpiperazin-1-yl)quinazoline-7-carboxamide] | 17 nM |
| CN1CCN(c2nc(N)nc3cc(C(=O)NCC(=O)OCc4ccccc4)ccc23)CC1 [Example 132, Benzyl({[2-amino-4-(4-methylpiperazin-1-yl)quinazolin-7yl]carbonyl}amino)acetate] | 139 nM |
| COC(=O)[C@H](Cc1ccc(OC(C)C)cc1)NC(=O)c1ccc2c(N3CCN(C)CC3)nc(N)nc2c1 [Example 134, Methyl (2S)-2-({[2-amino-4-(4-methylpiperazin-1-yl)quinazolin-7-yl]carbonyl}amino)-3-(4-isopropoxyphenyl)propanoate] | 29 nM |
| COC(=O)[C@H](Cc1ccc(OC(=O)NC(C)C)cc1)NC(=O)c1ccc2c(N3CCN(C)CC3)nc(N)nc2c1 [Example 135, (S)-Methyl 2-(2-amino-4-(4-methylpiperazin-1-yl)quinazoline-7-carboxamido)-3-(4-(isopropylcarbamoyloxy)phenyl)propanoate] | 70 nM |
| CC(C)Oc1ccc(C[C@H](NC(=O)c2ccc3c(N4CCN(C)CC4)nc(N)nc3c2)C(=O)N(C)C)cc1 [Example 136, (S)-2-amino-N-(1-(dimethylamino)-3-(4-isopropoxyphenyl)-1-oxopropan-2-yl)-4-(4-methylpiperazin-1-yl)quinazoline-7-carboxamide] | 59 nM |
| CC(C)Oc1ccc(C[C@@H](C#N)NC(=O)c2ccc3c(N4CCN(C)CC4)nc(N)nc3c2)cc1 [Example 137] | 42 nM |
| COC(=O)[C@H](Cc1ccc(-c2ccccc2)cc1)NC(=O)c1ccc2c(N3CCN(C)CC3)nc(N)nc2c1 [Example 138, Methyl (2S)-2-({[2-amino-4-(4-methylpiperazin-1-yl)quinazolin-7-yl]carbonyl}amino)-3-biphenyl-4-ylpropanoate] | 23 nM |
| CN1CCN(c2nc(N)nc3cc(C(=O)N[C@@H](Cc4ccc(-c5ccccc5)cc4)C(=O)N(C)C)ccc23)CC1 [Example 139, 2-Amino-N-[(1S)-1-(biphenyl-4-ylmethyl)-2-(dimethylamino)-2-oxoethyl]-4-(4-methylpiperazin-1-yl)quinazoline-7-carboxamide] | 25 nM |
| COC(=O)[C@H](Cc1ccc(-c2cnn(C)c2)cc1)NC(=O)c1ccc2c(N3CCN(C)CC3)nc(N)nc2c1 [Example 140, Methyl (2S)-2-({[2-amino-4-(4-methylpiperazin-1-yl)quinazolin-7yl]carbonyl}amino)-3-[4-(1-methyl-1H-pyrazol-4-yl)phenyl]propanoate] | 42 nM |

| SMILES | IC50 |
| --- | --- |
| CC(Cc1cc2ccccc2o1)NC(=O)c1ccc2c(N3CCN(C)CC3)nc(N)nc2c1 (stereo not shown) [Example 141, 2-Amino-N-[2-(1-benzofuran-2-yl)-1-methylethyl]-4-(4-methylpiperazin-1-yl)quinazoline-7-carboxamide] | 71 nM |
| CC(Cc1ccc(Oc2ccccc2)cc1)NC(=O)c1ccc2c(N3CCN(C)CC3)nc(N)nc2c1 (stereo not shown) [Example 142, 2-Amino-N-[1-methyl-2-(4-phenoxyphenyl)ethyl]-4-(4-methylpiperazin-1-yl)quinazoline-7-carboxamide] | 34 nM |
| CC(Cc1ccc(OC2CCCC2)cc1)NC(=O)c1ccc2c(N3CCN(C)CC3)nc(N)nc2c1 (stereo not shown) [Example 143, 2-Amino-N-{2-[4-(cyclopentyloxy)phenyl]-1-methylethyl}-4-(4-methylpiperazin-1-yl)quinazoline-7-carboxamide] | 37 nM |
| CN1CCN(c2nc(N)nc3cc(C(=O)NC(Cc4nc5ccccc5s4)C(=O)N(C)C)ccc23)CC1 (stereo not shown) [Example 144, 2-Amino-N-[1-(1,3-benzothiazol-2-ylmethyl)-2-(dimethylamino)-2-oxoethyl]-4-(4-methylpiperazin-1-yl)quinazoline-7-carboxamide] | 190 nM |
| CN1CCN(c2nc(N)nc3cc(C(=O)NC(Cc4ccc5c(c4)OC(F)(F)O5)C(=O)N(C)C)ccc23)CC1 (stereo not shown) [Example 145, 2-Amino-N-[1-[(2,2-difluoro-1,3-benzodioxol-5-yl)methyl]-2-(dimethylamino)-2-oxoethyl]-4-(4-methylpiperazin-1-yl)quinazoline-7-carboxamide] | 34 nM |
| CN1CCN(c2nc(N)nc3cc(C(=O)NC(Cc4cccc(Oc5ccccc5)c4)C(=O)N(C)C)ccc23)CC1 (stereo not shown) [Example 146, 2-Amino-N-[2-(dimethylamino)-2-oxo-1-(3-phenoxybenzyl)ethyl]-4-(4-methylpiperazin-1-yl)quinazoline-7-carboxamide] | 65 nM |
| CN1CCN(c2nc(N)nc3cc(C(=O)NC(Cc4ccc(-c5ccccc5)s4)C(=O)N(C)C)ccc23)CC1 (stereo not shown) [Example 147, 2-Amino-N-{2-(dimethylamino)-2-oxo-1-[(5-phenyl-2-thienyl)methyl]ethyl}-4-(4-methylpiperazin-1-yl)quinazoline-7-carboxamide] | 71 nM |
| CN1CCN(c2nc(N)nc3cc(C(=O)N[C@@H](Cc4ccc(-c5cccs5)cc4)C(=O)N(C)C)ccc23)CC1 [Example 148, 2-Amino-N-{(1S)-2-(dimethylamino)-2-oxo-1-[4-(2-thienyl)benzyl]ethyl}-4-(4-methylpiperazin-1-yl)quinazoline-7-carboxamide] | 18 nM |
| CC(C)c1ccc(CC(NC(=O)c2ccc3c(N4CCN(C)CC4)nc(N)nc3c2)C(=O)N(C)C)cc1 (stereo not shown) [Example 149, 2-Amino-N-[2-(dimethylamino)-1-(4-isopropylbenzyl)-2-oxoethyl]-4-(4-methylpiperazin-1-yl)quinazoline-7-carboxamide] | 40 nM |
| CN1CCN(c2nc(N)nc3cc(C(=O)NC(Cc4ccc(C(F)(F)F)cc4)C(=O)N(C)C)ccc23)CC1 (stereo not shown) [Example 150, 2-Amino-N-{2-(dimethylamino)-2-oxo-1-[4-(trifluoromethyl)benzyl]ethyl}-4-(4-methylpiperazin-1-yl)quinazoline-7-carboxamide] | 44 nM |
| CN1CCN(c2nc(N)nc3cc(C(=O)NC(Cc4ccc(-c5ccccc5)cc4)c4nccs4)ccc23)CC1 (stereo not shown) [Example 151, 2-amino-N-[2-biphenyl-4-yl-1-(1,3-thiazol-2-yl)ethyl]-4-(4-methylpiperazin-1-yl)quinazoline-7-carboxamide] | 69 nM |
| COc1ccccc1-c1ccc(C[C@H](NC(=O)c2ccc3c(N4CCN(C)CC4)nc(N)nc3c2)C(=O)N(C)C)cc1 [Example 152, 2-Amino-N-{(1S)-2-(dimethylamino)-1-[(2′-methoxybiphenyl-4-yl)methyl]-2-oxoethyl}-4-(4-methylpiperazin-1-yl)quinazoline-7-carboxamide] | 10 nM |
| COc1cccc(-c2ccc(C[C@H](NC(=O)c3ccc4c(N5CCN(C)CC5)nc(N)nc4c3)C(=O)N(C)C)cc2)n1 [Example 153, 2-Amino-N-{(1S)-2-(dimethylamino)-1-[4-(6-methoxypyridin-2-yl)benzyl]-2-oxoethyl}-4-(4-methylpiperazin-1-yl)quinazoline-7-carboxamide] | 19 nM |
| CN1CCN(c2nc(N)nc3cc(C(=O)N[C@@H](Cc4ccc(-c5cccc(C#N)c5)cc4)C(=O)N(C)C)ccc23)CC1 [Example 154, 2-Amino-N-[(1S)-1-[(3′-cyanobiphenyl-4-yl)methyl]-2-(dimethylamino)-2-oxoethyl]-4-(4-methylpiperazin-1-yl)quinazoline-7-carboxamide] | 14 nM |
| CN1CCN(c2nc(N)nc3cc(C(=O)N[C@@H](Cc4ccc(-c5ccc(C#N)cn5)cc4)C(=O)N(C)C)ccc23)CC1 [Example 155, 2-Amino-N-[(1S)-1-[4-(5-cyanopyridin-2-yl)benzyl]-2-(dimethylamino)-2-oxoethyl]-4-(4-methylpiperazin-1-yl)quinazoline-7-carboxamide] | 55 nM |
